Assay [1] concerns cimetidine-inhibited tissues. The assay is described as follows: Resistance (R) of cimetidine-inhibited gastric mucosa tissues. Format: cell-based, bullfrog. The settings on record: pH 7.2. How it is done: Tissues were incubated with cimetidine until acid secretion reached 0 μEq/hr cm^2; experiments were performed only if the R of paired tissues was different by 10% or less.

For a further assay, the system named is rabbit gastric glands. Kind of assay: Intracellular ATP in rabbit gastric glands. Format: cell-based.
Assay [2] deals with bullfrog gastric mucosa. Format: cell-based. How it is done: FIG. 1B Electrophysiology in the bullfrog gastric mucosa. […] Removal of NH4Cl was followed by a complete recovery of R within 30 min. Data were obtained from 21 experiments and are expressed as the mean±SEM.
FIG. 1C Electrophysiology in the bullfrog gastric mucosa. […] Removal of NH4Cl was followed by a complete recovery of PD within 30 min. Data were obtained from 21 experiments and are expressed as the mean±SEM.

Assay [3] has as its system bullfrog gastric mucosa. Kind of assay: Acid secretion of frog (bullfrog) gastric mucosa stimulated with histamine/carbachol or forskolin. Format: cell-based.
The subject of assay [4] is bullfrog gastric mucosa. The conditions noted are these: cited from earlier work.
Assay [5] deals with Ca^2+-dependent inwardly rectifying K^+ channel. The settings on record: HeLa cells (Diaz et al.); cited from earlier work.

SMILES strings stand for the structures. Entries after “also recorded” stand apart in the source; their conditions may differ.

On to `Cl.N` [NH4Cl, ammonium chloride], for which the “effect of NH4Cl on R of cimetidine-inhibited tissues (in words)” value in assay [1] is “does not cause an increase in R; also recorded: no change in R”. In addition, in the assay on rabbit gastric glands, the “effect on concentration of ATP (in words)” value was “statistically significant reduction in the concentration of ATP”; the “intracellular ATP” value came out at 3.76±0.12 μM/mg protein; the “intracellular ATP, % of control” value was 83 % of control. Besides, in the assay with bullfrog gastric mucosa [2], the “PD after NH4Cl” value turned out to be 28.48±1.47 mvolts, the “PD after NH4Cl washed out” value is 7.95±2.65 mvolts, the “R after NH4Cl” value was determined as 306.5±16.11 Ohm cm^2 and the “R after NH4Cl washed out” value was 159.0±16.83 Ohm cm^2. In the assay on bullfrog gastric mucosa [2], the “effect on potential difference (PD) of stimulated tissues (in words)” value was “increase in potential difference (PD)” and the “effect on resistance (R) of stimulated tissues (in words)” value is listed as “increase in resistance (R)”. In the assay with bullfrog gastric mucosa [3], the “Rate of decline in acid secretion” value was −0.2881 (μEq/h · cm^2)/min, the “acid secretion after NH4Cl washed from the nutrient bath” value was 5.51±0.16 μEq/hr cm^2, the “effect of 1-9 mM NH4Cl on acid secretion” value is “inhibition of acid secretion” and the “least (minimum) concentration required for complete inhibition of acid secretion within 30 min” value is reported as 10 mM. Further, in the assay on bullfrog gastric mucosa [3], the “rate of decline of acid secretion relative to cimetidine” value is on record as 3.6 times faster, the “rate of decline of acid secretion relative to omeprazole” value is reported as 3.2 times faster, the “rate of inhibition of acid secretion relative to cimetidine or omeprazole” value is on record as “more than 3 times faster” and the “time to complete inhibition of stimulated acid secretion” value is on record as not above 30 min. Moreover, in the assay on bullfrog gastric mucosa [3] (pH 7.2), the “rate of acid secretion after NH4Cl” value is listed as 0±0 μEq/hr cm^2. Also, in the assay with bullfrog gastric mucosa [4], the “effect of luminal NH4Cl on tissue resistance (Yanaka et al.)” value is “significant decrement in tissue resistance”. In the assay with bullfrog gastric mucosa [4] (pH 7.2), the “effect of basolateral NH4Cl on acid secretion (Yanaka et al.)” value was “rapidly and completely inhibits acid secretion”.

Turning to `N` [NH4^+], the “inhibition of Ca2+-dependent inwardly rectifying K+ channel activity” value in assay [5] is recorded as “potent inhibitor”.

These data come from patent US20040224880A1, “Regulation of gastric acid secretion by inwardly rectifying k+ channels” (Beth Israel Deaconess Medical Center, Inc., priority 2001, published 2004).
